Results on nine molecules are retold here after paper PMC9821130, “Testing Antimicrobial Properties of Selected Short Amyloids” (International Journal of Molecular Sciences, 2023).

Values after ≈ are worked out from the molar mass of the structure shown. Like-named read-outs stand apart in the source and are kept apart here. Where a SMILES comes first, the peptide text is derived from it. Where no end group is shown, it is not given here.

A word on the MIC: it is the lowest concentration found to suppress growth. Usually IC50 stands for the point on the concentration scale where inhibition reaches its midpoint.

Data set [1] is described as follows: Thioflavin T fluorescence, fibril/aggregate formation in MHB. The note with it: ThT 20 µM, peptide 20 mg/mL in MHB, 37 °C, 24 h, reading every 30 s, ex 450 nm / em 490 nm. The class given is physicochemical. The procedure:
In the second stage of our research, we decided to determine the propensity of the ten short amyloids (Table 1) to form fibrils under the conditions routinely used to evaluate AMP properties, i.e., upon their incubation in Mueller–Hinton Broth (MHB; for details, see Materials and Methods). These experiments could also allow us to speculate whether the amyloid properties of peptides go along with their antimicrobial activities. To detect the presence of protein fibrils, we used a benzothiazole dye (thioflavin T). Thioflavin T binds to β sheet-rich structures in amyloid aggregates and triggers a characteristic red shift, i.e., an increase in the wavelength in both excitation and emission maximum of the dye. […] The fluorescence spectra of the remaining peptides were indistinguishable from those of the medium itself (Figure S1).
The amyogenic abilities of the tested amyloids were determined in a kinetic reaction using the fluorescent dye thioflavin T (ThT), according to the modified method of Salinas et al.. […] ThT fluorescence intensity readings were performed in 96-well opaque microplates using a SpectraMax GeminiXPS spectrofluorometer at an excitation of λex 450 nm, an emission of λem 490 nm, and a cut-off point of λcut off 475 nm. Measurements were monitored for 24 h every 30 s. at 37 °C. The results were analysed in the SoftMax program. […]

In the next data set the test system is Escherichia coli 1471. The class given is cell-based. The procedure: (§1) All bacterial strains were stored at −80 °C. The strains were revived using overnight cultures prepared in Tryptic Soy Broth (TSB, OXOID, Basingstoke, UK) and incubated under shaking conditions (MaxQTM6000 incubator shaker, Thermo Scientific, Waltham, MA, USA) at 125 rpm and 37 °C. Next, the purity of the strains was evaluated using enriched media (appropriate for the tested strains). For each experiment, a fresh 18–20 h culture was prepared on Tryptic Soy Agar (TSA, OXOID, Basingstoke, UK) for Gram-positive bacteria and MacConkey Agar (MC, OXOID, Basingstoke) for Gram-negative bacteria, and the samples were then transferred to fresh Mueller–Hinton Broth (MHB, OXOID, Basingstoke, UK), where the density was determined. Each culture was established at 10^8 CFU/mL and then diluted to a starting inoculum of 10^6 CFU/mL.
(§2) The microdilution method was used to measure the antimicrobial activity of amyloids. The test was performed according to the recommendations of EUCAST (ISO 20776–1:2019).
(§3) In 96-well microtiter plates, geometric dilutions of the tested amyloids were prepared from 128 to 0.25 µg/mL in 50 µL MHB. The stock solution (20 mg/mL) of the synthesized amyloids was prepared in MHB. The bacterial suspension prepared in MHB with a density of 10^6 CFU/mL was added to 50 µL of MHB containing the appropriate concentrations of amyloids, thus yielding a final bacterial concentration of 10^5 CFU/mL. Pure MHB was used as a negative control, while the control for bacterial growth was MHB medium in the presence of the strain used in the experiment. Antibiotic solutions were used as positive controls: colistin for Gram-negative bacteria and teicoplanin for Gram-positive bacteria.
(§4) Microtiter plates were incubated at 37 °C for 18 h for S. aureus, S. epidermidis, K. pneumoniae, E. coli, A. baumannii, and E. cloacae and 24 h for E. faecalis and E. faecium. Optimal density (OD600 nm) was measured in a plate reader (ASYS UVM340, BIOCHROM Ltd., Cambridge, UK). The absorbance results were converted to percentages (with respect to growth control) in the normalization process. The MIC (minimal inhibitory concentration) for each peptide was defined as the concentration at which the destruction of at least 90% of the initial inoculum was observed.
(§5) Each experiment was performed in three independent studies for each of the two isolates, and each replicate was performed in three separate wells. […] The MBC value was defined as the lowest concentration at which no growth of the tested strain was observed.
(§6) Linear regression analyses for viability of the HEK-293 cells subjected to ten amyloids, as well as the estimation of IC50 values, were determined in R Statistical Software using the model y = ax + 100% in the function lm from the stats package. The regression analyses for the viability of the bacterial cells and the estimation of MIC were conducted based on a linear mixed-effects model y = ax + 100% + (1|isolate/replicate) in lmer function from R package lme4 [73]. Isolates and replicates were assumed as random effects. The p-values of the determination coefficient and the slope were corrected using the Benjamini–Hochberg procedure for the obtained models.

Data set [2] has as its system Enterococcus faecium 2VRE. The class given is cell-based. The procedure: as §1, §2, §3, §4, §5, §6
Data set [3] deals with Enterococcus faecalis 37VRE. The class given is cell-based. The procedure: as §1, §2, §3, §4, §5, §6
Data set [4] deals with Klebsiella pneumoniae N111. The class given is cell-based. The procedure: as §1, §2, §3, §4, §5, §6
The subject of the next data set is HEK-293 cells. The class given is cell-based, human. The note with it: HEK-293, MTT, 24 h exposure, 128 to 0.25 µg/mL; from linear regression y = ax + 100%. The procedure:
HEK-293 human embryonic kidney cells (ATCC, CRL-1573) were cultured in DMEM medium supplemented with 10% fetal bovine serum and 1% penicillin/streptomycin solution. The cells were cultured at 37 °C, 5% CO2, until the concentration was about 10^6 per mL. A total of 2 × 10^5 cells/mL were seeded in 96-well tissue microplates (2 × 10^4 cells per well) and were allowed to adhere overnight under the conditions described above. Cytotoxicity tests were carried out on the cells prepared in this way.
Cells were incubated with varying concentrations from 128 to 0.25 µg/mL of the tested amyloid for 24 h exposure. The MTT assay has been previously described. After incubating the cells with the tested amyloids, the MTT reagent (Ck = 0.5 mg/mL) was added to a well of a microtiter plate. After 2 h incubation (37 °C, 5% CO2), the MTT medium was removed and replaced with DMSO, to which was then added Sorensen’s buffer (0.1 M glycine, 0.1 M NaCl; pH 10.5). In the MTT test, the cell viability is directly proportional to the absorbance (570 nm). The control cells for background absorbance contained the growth medium, with MTT only. For MTT analysis, at least three experiments were performed using cells from consecutive passages. […]

For the molecule `C[C@@H](O)[C@H](NC(=O)[C@H](Cc1ccccc1)NC(=O)[C@H](CS)NC(=O)[C@H](Cc1c[nH]c2ccccc12)NC(=O)[C@H](CS)NC(=O)[C@@H](N)CCCCN)C(=O)O` [Amyloid 5] (H-KCWCFT-OH; N-terminus and C-terminus assumed), in data set [1], the “Formation of aggregates (fibrils) in the MHB medium” value was “formed aggregates in the MHB medium”. Besides, the MIC is reported as 405 µg/mL (≈ 515 µM) with Escherichia coli 1471 and 230 µg/mL (≈ 292 µM) in data set [2] (2VRE).
For the molecule AIIGLM [Amyloid 8], the MIC against Escherichia coli 1471 stood at 372 µg/mL; in data set [2] (2VRE), 280 µg/mL; in data set [3] (37VRE), 496 µg/mL; in data set [4] (N111), 475 µg/mL.
For GGYLLG [Amyloid 9], the IC50 in the data set on HEK-293 cells was 171 µg/mL. For the same molecule, the minimum inhibitory concentration (MIC) is reported as 204 µg/mL in data set [2] (E. faecium 2VRE, calculated from linear mixed-effects regression model, beyond tested range (max 128 µg/mL), MIC = at least 90% destruction); 389 µg/mL in data set [3] (E. faecalis 37VRE, calculated from linear mixed-effects regression model, beyond tested range (max 128 µg/mL)); 406 µg/mL in data set [4] (K. pneumoniae N111, calculated from linear mixed-effects regression model, beyond tested range (max 128 µg/mL)).
On to LIVAGK [Amyloid 3], for which the minimum inhibitory concentration (MIC) in data set [2] (2VRE) is recorded as 301 µg/mL.
LKVKVL [Amyloid 7]: the minimum inhibitory concentration (MIC) against Escherichia coli 1471 came out at 345 µg/mL; in data set [2] (2VRE), 326 µg/mL; in data set [3] (37VRE) it was 418 µg/mL.
In the case of VCIVYK [Amyloid 2], the results for the MIC in data set [2] (2VRE) and in data set [3] (37VRE) were 177 µg/mL and 364 µg/mL, respectively.
For the molecule VGIVYK [Amyloid 10], the results for the minimal inhibitory concentration (MIC) in data set [2] (2VRE) and in data set [3] (37VRE) were 295 µg/mL and 193 µg/mL, respectively.
With VKIVYK [Amyloid 6], the figures for the minimal inhibitory concentration (MIC) (with Escherichia coli 1471; in data set [2] (2VRE); in data set [4] (N111)) were 319 µg/mL, 179 µg/mL and 482 µg/mL, respectively.
As for VQIVCK [Amyloid 1], the results for the MIC in data set [2] (2VRE) and in data set [3] (37VRE) were 196 µg/mL and 228 µg/mL, respectively.
